Values of other authors, collected in patent US6544961B1, “Combinations comprising VX478, zidovudine, FTC and/or 3TC for use in the treatments of HIV” (SmithKline Beecham Corporation, priority 1996, dated 2003).

Test system: HIV
Conditions: European Patent Specification No. 384536

Nc1ccn(C2CSC(CO)O2)c(=O)n1 (racemic) [BCH-189, 4-amino-1-(2-hydroxymethyl-1,3-oxathiolan-5-yl)-(1H)-pyrimidin-2-one]
anti-HIV activity: have been found to have anti-HIV activity
